IC50 and Activity data for 26 compounds are collected here from ChEMBL document CHEMBL5385847, “Design, synthesis and biological evaluation of a new class of 7H-pyrrolo[2,3-d]pyrimidine derivatives as Mps1 inhibitors for the treatment of breast cancer” (Eur J Med Chem, 2023).

The target of test [1] is T1, Dual specificity protein kinase TTK (Homo sapiens, UniProt P33981).
T1 sequence (P33981 whole entry): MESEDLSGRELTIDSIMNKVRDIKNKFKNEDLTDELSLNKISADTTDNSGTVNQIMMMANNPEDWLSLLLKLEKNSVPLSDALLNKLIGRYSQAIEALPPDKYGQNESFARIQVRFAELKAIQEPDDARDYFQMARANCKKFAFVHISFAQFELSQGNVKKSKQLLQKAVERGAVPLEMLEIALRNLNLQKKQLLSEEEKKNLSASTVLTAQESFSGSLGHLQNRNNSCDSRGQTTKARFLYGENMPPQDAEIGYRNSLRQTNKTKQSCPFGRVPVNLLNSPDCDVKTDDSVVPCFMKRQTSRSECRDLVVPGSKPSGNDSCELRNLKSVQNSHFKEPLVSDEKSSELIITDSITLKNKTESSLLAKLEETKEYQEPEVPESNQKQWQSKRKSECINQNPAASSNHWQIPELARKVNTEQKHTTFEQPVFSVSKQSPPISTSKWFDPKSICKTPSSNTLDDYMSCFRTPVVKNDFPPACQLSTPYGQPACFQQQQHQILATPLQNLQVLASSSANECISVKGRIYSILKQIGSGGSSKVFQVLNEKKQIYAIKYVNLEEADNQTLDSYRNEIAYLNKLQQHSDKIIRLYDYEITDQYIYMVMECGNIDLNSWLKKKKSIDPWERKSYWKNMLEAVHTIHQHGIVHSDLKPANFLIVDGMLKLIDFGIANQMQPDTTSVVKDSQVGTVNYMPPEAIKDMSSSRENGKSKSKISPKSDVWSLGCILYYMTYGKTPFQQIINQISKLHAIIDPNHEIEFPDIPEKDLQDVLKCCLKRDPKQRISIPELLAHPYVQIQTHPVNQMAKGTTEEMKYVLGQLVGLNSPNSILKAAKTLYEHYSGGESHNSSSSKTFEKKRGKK
As to the kind of experiment: Inhibition of Mps1 (unknown origin) incubated for 120 mins in presence of substrate/ATP by ADP-Glo assay.

Test [2] concerns 4T1-Luc. As to the kind of experiment: Antitumor activity against mouse 4T1-Luc cells xenografted in BALB/C mouse assessed as delay in tumor growth at 10 mg/kg, ip dosed once a week for 15 days. Format: functional, organism-based. The conditions noted are these: time 15.0 day.
The test system of test [3] is 4T1. As to the kind of experiment: Induction of apoptosis in 4T1 cells assessed as necrotic cells at 5 uM incubated for 48 hrs by Annexin V-FITC/PI staining based flow cytometry (reference value: 0.20 %). Format: functional, Mus musculus. Background: A flow cytometer gives signals particle by particle.
For test [4], the system named is 4T1. The test can be described thus: Induction of apoptosis in 4T1 cells assessed as late apoptotic cells at 5 uM incubated for 48 hrs by Annexin V-FITC/PI staining based flow cytometry (reference value: 1.73 %). Format: functional, Mus musculus.
Test [5] deals with 4T1. The test can be described thus: Induction of apoptosis in 4T1 cells assessed as early apoptotic cells at 5 uM incubated for 48 hrs by Annexin V-FITC/PI staining based flow cytometry (reference value: 0.32 %). The class given is functional, Mus musculus.
Test [6] has as its system MCF7. As to the kind of experiment: Induction of apoptosis in human MCF7 cells assessed as necrotic cells at 5 uM incubated for 48 hrs by Annexin V-FITC/PI staining based flow cytometry (reference value: 0.03 %). Format: functional.
The subject of test [7] is MCF7. As to the kind of experiment: Induction of apoptosis in human MCF7 cells assessed as late apoptotic cells at 5 uM incubated for 48 hrs by Annexin V-FITC/PI staining based flow cytometry (reference value: 0.63 %). The class given is functional.
The test system of test [8] is MCF7. The test can be described thus: Induction of apoptosis in human MCF7 cells assessed as early apoptotic cells at 5 uM incubated for 48 hrs by Annexin V-FITC/PI staining based flow cytometry (reference value: 1.19 %). Format: functional.

The source made the active and inactive calls. The rule behind the calls is not given here.

One may read the IC50 as the concentration at which inhibition is half-maximal. With `c1ccc2c(c1)ccn2-c1nc(Nc2ccc(N3CCOCC3)cc2)nc2[nH]ccc12`, in test [1], the IC50 came to 144 nM.
`Nc1nn(-c2nc(Nc3ccc(N4CCOCC4)cc3)nc3[nH]ccc23)c2ccccc12`: the IC50 in test [1] stood at 49 nM.
The same measure, in the same setting: the same measure for `COc1cc(N2CCOCC2)ccc1Nc1nc(-n2nc(N)c3ccccc32)c2cc[nH]c2n1`: 33 nM; for `CN1CCN(c2ccc(Nc3nc(-n4cnc5ccccc54)c4cc[nH]c4n3)cc2)CC1`: 83 nM; for `CN1CCN(c2ccc(Nc3nc(-n4ccc5cnccc54)c4cc[nH]c4n3)cc2)CC1`: 149 nM.
Regarding `CC(=O)O[C@H]1C(=O)[C@@]2(C)[C@H]([C@H](OC(=O)c3ccccc3)[C@]3(O)C[C@H](OC(=O)[C@H](O)[C@@H](NC(=O)c4ccccc4)c4ccccc4)C(C)=C1C3(C)C)[C@]1(OC(C)=O)CO[C@@H]1C[C@@H]2O`, the outcome in test [2] was Active.
In the case of `Nc1nn(-c2nc(Nc3ccccc3F)nc3[nH]ccc23)c2ccccc12`, in test [1], the IC50 is 54 nM.
Same read-out and setting: with `c1cc2c(ccn2-c2nc(Nc3ccc(N4CCOCC4)cc3)nc3[nH]ccc23)cn1` the figure was 464 nM.
Regarding `Cc1cc(N2CCN(C)CC2)ccc1Nc1nc(-n2nc(N)c3ccccc32)c2cc[nH]c2n1`, in test [1], the IC50 was 41 nM.
As to `Nc1nn(-c2nc(Nc3ccccc3)nc3[nH]ccc23)c2ccccc12`, the IC50 in test [1] amounted to 106 nM.
With `CN1CCN(c2ccc(Nc3nc(-c4cnn(C)c4)c4cc[nH]c4n3)cc2)CC1`, in test [1], the IC50 amounted to 67 nM.
Same read-out and setting: the same measure for `Cn1cc(-c2nc(Nc3ccc(N4CCOCC4)cc3)nc3[nH]ccc23)cn1`: 49 nM.
The same measure, in the same setting: the same measure for `CN1CCN(c2ccc(Nc3nc(-n4ccc5ccccc54)c4cc[nH]c4n3)cc2)CC1`: 137 nM.
For `CCc1ccccc1Nc1nc(-n2nc(N)c3ccccc32)c2cc[nH]c2n1`, the IC50 in test [1] was found to be 338 nM.
Consider `CCN1CCN(c2ccc(Nc3nc(-n4nc(N)c5ccccc54)c4cc[nH]c4n3)cc2)CC1`, for which the IC50 in test [1] amounted to 32 nM.
Same read-out and setting: with `COc1cc(N2CCOCC2)ccc1Nc1nc(-n2ccc3ccccc32)c2cc[nH]c2n1` the figure was 132 nM.
Take `Nc1nn(-c2nc(Nc3ccccc3OC(F)(F)F)nc3[nH]ccc23)c2ccccc12`: in test [1], the IC50 was 154 nM.
With `COc1ccccc1Nc1nc(-n2nc(N)c3ccccc32)c2cc[nH]c2n1`, in test [1], the IC50 was 51 nM.
On to `COc1cc(N2CCOCC2)ccc1Nc1nc(-n2ccc3cnccc32)c2cc[nH]c2n1`, for which the IC50 in test [1] amounted to 154 nM.
On the same count and under the same terms, the same measure for `CN1CCN(c2ccc(Nc3nc(-n4nc(N)c5ccccc54)c4cc[nH]c4n3)cc2F)CC1`: 35 nM.
Regarding `Cc1cc(N2CCOCC2)ccc1Nc1nc(NC2CCCCC2)c2nc[nH]c2n1`, the Activity turned out to be 0.54% in test [3]; 9.86% in test [4]; 1.56% in test [5]; 0.35% in test [6]; 4.31% in test [7]; 5.46% in test [8].
For `Nc1nn(-c2nc(Nc3ccccc3Cl)nc3[nH]ccc23)c2ccccc12`, the IC50 in test [1] was determined as 68 nM.
With `c1ccc2c(c1)ncn2-c1nc(Nc2ccc(N3CCOCC3)cc2)nc2[nH]ccc12`, the IC50 in test [1] turned out to be 47 nM.
Still for that read-out and setting: the same measure for `COc1cc(N2CCOCC2)ccc1Nc1nc(-c2cnn(C)c2)c2cc[nH]c2n1`: 34 nM.
For the compound `CN1CCN(c2ccc(Nc3nc(-n4nc(N)c5ccccc54)c4cc[nH]c4n3)cc2Cl)CC1`, the IC50 in test [1] was 50 nM.
On the same count and under the same terms, the same measure for `COc1cc(N2CCOCC2)ccc1Nc1nc(-n2cnc3ccccc32)c2cc[nH]c2n1`: 40 nM.
